Reference: patent US20250186433A1, “ACSS2 INHIBITORS AND METHODS OF USE THEREOF” (EpiVario, Inc., priority 2017, published 2025)

Molecular target: ACSS2 (Homo sapiens, UniProt Q9NR19)
Test: biochemical
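Further: Pyrophosphatase-coupled ACSS2 enzyme assay, 10 nM protein incubated 90 min at 37 °C with ATP, CoA and acetate, released phosphate read by Biomol Green absorbance at 620 nm.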

ACSS2, sequence (Q9NR19 whole entry): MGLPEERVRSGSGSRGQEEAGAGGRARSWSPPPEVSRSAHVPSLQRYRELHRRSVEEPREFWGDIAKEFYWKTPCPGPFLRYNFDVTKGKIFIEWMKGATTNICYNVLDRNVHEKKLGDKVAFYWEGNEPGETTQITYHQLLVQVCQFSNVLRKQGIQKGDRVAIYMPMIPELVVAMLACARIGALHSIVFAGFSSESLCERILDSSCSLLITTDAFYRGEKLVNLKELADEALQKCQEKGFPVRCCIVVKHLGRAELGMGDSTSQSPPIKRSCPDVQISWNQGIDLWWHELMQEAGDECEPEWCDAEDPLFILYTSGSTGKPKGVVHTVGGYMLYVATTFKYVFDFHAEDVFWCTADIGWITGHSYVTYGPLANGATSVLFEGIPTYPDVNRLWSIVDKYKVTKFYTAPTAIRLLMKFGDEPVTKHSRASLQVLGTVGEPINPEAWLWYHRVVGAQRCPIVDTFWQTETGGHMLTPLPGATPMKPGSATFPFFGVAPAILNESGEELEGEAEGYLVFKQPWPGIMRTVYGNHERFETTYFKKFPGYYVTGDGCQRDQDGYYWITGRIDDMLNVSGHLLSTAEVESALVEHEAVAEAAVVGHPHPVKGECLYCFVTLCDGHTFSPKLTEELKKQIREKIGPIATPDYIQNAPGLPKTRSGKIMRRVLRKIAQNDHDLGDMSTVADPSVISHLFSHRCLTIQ

IC50 [nM]	Compound
0.01 to 6	CCC(F)(F)c1cccc(NC(=O)C2C(=O)N(c3ccc4ccn(C(=O)c5ccccc5C)c4c3)N=C2C)c1 (stereo not drawn) [compound 479]
0.01 to 6	CCC(F)(F)c1cccc(NC(=O)C2C(=O)N(c3ccc(OC)nn3)N=C2C)c1 (stereo not drawn) [compound 510, N-(3-(1,1-difluoropropyl)phenyl)-1-(6-methoxypyridazin-3-yl)-3-methyl-5-oxo-4,5-dihydro-1H-pyrazole-4-carboxamide]
6 to 100	CC1=NN(c2ccc(OC(F)F)cc2)C(=O)C1C(=O)Nc1cccc(C(F)=C(C)C)c1 (stereo not drawn) [compound 496, 1-[4-(difluoromethoxy)phenyl]-N-[3-(1-fluoro-2-methyl-prop-1-enyl)phenyl]-3-methyl-5-oxo-4H-pyrazole-4-carboxamide]
6 to 100	CCC(F)(F)c1cccc(NC(=O)C2C(=O)N(c3ccc(Cl)nn3)N=C2C)c1 (stereo not drawn) [compound 490, 1-(6-chloropyridazin-3-yl)-N-(3-(1,1-difluoropropyl)phenyl)-3-methyl-5-oxo-4,5-dihydro-1H-pyrazole-4-carboxamide]
0.01 to 6	CCC(F)(F)c1cccc(NC(=O)C2C(=O)N(c3ccc(OC)cc3F)N=C2C)c1 (stereo not drawn) [compound 505, N-(3-(1,1-difluoropropyl)phenyl)-1-(2-fluoro-4-methoxyphenyl)-3-methyl-5-oxo-4,5-dihydro-1H-pyrazole-4-carboxamide]
0.01 to 6	CCC(F)(F)c1cccc(NC(=O)C2C(=O)N(c3ccc4cn[nH]c4c3)N=C2C)c1 (stereo not drawn) [compound 499, N-[3-(1,1-difluoropropyl)phenyl]-1-(1H-indazol-6-yl)-3-methyl-5-oxo-4H-pyrazole-4-carboxamide]
0.01 to 6	CCC(F)(F)c1cccc(NC(=O)C2C(=O)N(c3ccc4c(C)cn(C)c4c3)N=C2C)c1 (stereo not drawn) [compound 497, N-(3-(1,1-difluoropropyl)phenyl)-1-(1,3-dimethyl-1H-indol-6-yl)-3-methyl-5-oxo-4,5-dihydro-1H-pyrazole-4-carboxamide]
100 to 1000	CCC(F)(F)c1cccc(NC(=O)C2C(=O)N(c3cnc(OC)cn3)N=C2C)c1 (stereo not drawn) [compound 512, N-(3-(1,1-difluoropropyl)phenyl)-1-(5-methoxypyrazin-2-yl)-3-methyl-5-oxo-4,5-dihydro-1H-pyrazole-4-carboxamide]

Further lines, the compound ahead of its results:

Compound	IC50 [nM]
CC1=NN(c2cc(Br)cc(I)c2)C(=O)C1C(=O)Nc1cccc(C(C)(F)F)c1 (stereo not drawn) [compound 468]	0.01 to 6
CCC(F)(F)c1cccc(NC(=O)C2C(=O)N(c3ccc4ccn(Cc5ccccc5)c4c3)N=C2C)c1 (stereo not drawn) [compound 463, 1-(1-benzylindol-6-yl)-N-[3-(1,1-difluoropropyl)phenyl]-3-methyl-5-oxo-4H-pyrazole-4-carboxamide]	0.01 to 6
CC1=NN(c2ccc(OC(F)F)cc2)C(=O)C1C(=O)Nc1cccc(C(F)(F)C2CCCC2)c1 (stereo not drawn) [compound 470, N-(3-(cyclopentyldifluoromethyl)phenyl)-1-(4-(difluoromethoxy)phenyl)-3-methyl-5-oxo-4,5-dihydro-1H-pyrazole-4-carboxamide]	100 to 1000
CC(F)(F)c1cccc(NC(=O)C2C(=O)N(c3ccc(OC(F)F)cc3)N=C2CS)c1 (stereo not drawn) [compound 339]	100 to 1000
COc1ccccc1Cc1cc(-c2ccccc2)cc(N2N=C(C)C(C(=O)Nc3cccc(C(C)(F)F)c3)C2=O)c1 (stereo not drawn) [compound 467]	6 to 100
CC1=NN(c2ccc(OC(F)F)cn2)C(=O)C1C(=O)Nc1cccc(C(F)(F)C2CC2)c1 (stereo not drawn) [compound 464, N-(3-(cyclopropyldifluoromethyl)phenyl)-1-(5-(difluoromethoxy)pyridin-2-yl)-3-methyl-5-oxo-4,5-dihydro-1H-pyrazole-4-carboxamide]	0.01 to 6
CCC(F)(F)c1cccc(NC(=O)C2C(=O)N(c3ccc4ccn(-c5ccccc5)c4c3)N=C2C)c1 (stereo not drawn) [compound 472, N-[3-(1,1-difluoropropyl)phenyl]-3-methyl-5-oxo-1-(1-phenylindol-6-yl)-4H-pyrazole-4-carboxamide]	0.01 to 6
